Assay results: patent publication US20150038438A1, “ANTIBACTERIAL COMPOUNDS AND METHODS FOR USE” (PTC THERAPEUTICS, INC., priority 2011, published 2015)
In brackets after ≈: the same amount, converted by molar mass. Structures can show the parent of a compound that is named as a salt.

How the values were obtained:
Test in all cases: Antibacterial activity, microbroth dilution method (MIC)
[1] = system: super sensitive Gram-negative Escherichia coli (E. coli) BAS849; assay type: cell-based; settings: super sensitive Gram-negative E. coli BAS849, microbroth dilution; for MIC: Escherichia coli, read-out: MIC, E. coli BAS849
Procedure, shortened: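 Potency is reported as minimum inhibitory concentration in μg/mL, determined by broth microdilution as the lowest level of compound that stops growth visible to the eye.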

[2] = system: Gram-positive Staphylococcus aureus (S. aureus) 29213; assay type: cell-based; settings: Gram-positive S. aureus 29213; for MIC: Staphylococcus aureus
Procedure, shortened: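 In a microbroth dilution test, the minimum inhibitory concentration was defined as the lowest compound level preventing growth seen by eye, and was given in μg/mL.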

[3] = system: control Gram-negative E. coli 25922 strain; assay type: cell-based, Escherichia coli; settings: for MIC: Escherichia coli
Procedure, shortened: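 Growth inhibition by microbroth dilution. MIC = lowest μg/mL with no visible growth. Strain 25922 is the control Gram-negative; BAS849 is hypersensitive.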

SMILES	MIC [1] [µg/mL]	MIC [2] [µg/mL]	MIC [3] [µg/mL]	MIC, E. coli BAS849 [1]	MIC, S. aureus 29213 [2]	MIC, E. coli 25922 [3]
O=C(O)c1c(O)c2c([nH]c1=O)-c1ccc(N3CCCC3)cc1SCC2 [Cpd 186, 4-hydroxy-2-oxo-9-(pyrrolidin-1-yl)-1,2,5,6-tetrahydrobenzo[2,3]thiepino[4,5-b]pyridine-3-carboxylic acid]	< 1	3.5 to 12.5 (≈ 9.77 to 34.9 µM)	12.5 to 150 (≈ 34.9 to 419 µM)			
CNCc1cc2cc3c(cc2n1C)C=CCc1c-3[nH]c(=O)c(C(=O)O)c1O.Cl [Cpd 68, 4-hydroxy-9-methyl-10-((methylamino)methyl)-2-oxo-1,2,5,9-tetrahydropyrido[3′,2′:6,7]cyclohepta[1,2-f]indole-3-carboxylic acid hydrochloride]	< 1	3.5 to 12.5	< 1			
CN1CCCN(Cc2cc3cc4c(cc3n2C)CCCc2c-4[nH]c(=O)c(C(=O)O)c2O)CC1.Cl.Cl [Cpd 156, 4-hydroxy-9-methyl-10-((4-methyl-1,4-diazepan-1-yl)methyl)-2-oxo-1,2,5,6,7,9-hexahydropyrido[3′,2′:6,7]cyclohepta[1,2-f]indole-3-carboxylic acid dihydrochloride]	< 1	12.5 to 150	3.5 to 12.5			
CNCc1cc2cc3c(cc2n1C)CCCCc1c-3[nH]c(=O)c(C(=O)O)c1O.Cl [Cpd 58, 4-hydroxy-10-methyl-11-((methylamino)methyl)-2-oxo-2,5,6,7,8,10-hexahydro-1H-pyrido[3′,2′:7,8]cycloocta[1,2-f]indole-3-carboxylic acid hydrochloride]	< 1	3.5 to 12.5	< 1			
CCNCc1cc2cc3c(cc2n1C)CCC(C)c1c-3[nH]c(=O)c(C(=O)O)c1O.Cl (stereo not drawn) [Cpd 67, 10-((ethylamino)methyl)-4-hydroxy-5,9-dimethyl-2-oxo-1,2,5,6,7,9-hexahydropyrido[3′,2′:6,7]cyclohepta[1,2-f]indole-3-carboxylic acid hydrochloride]	< 1	12.5 to 150	1 to 3.5			
CC1Oc2ccccc2-c2[nH]c(=O)c(C(=O)O)cc21 (stereo not drawn) [Cpd 73, 5-methyl-2-oxo-2,5-dihydro-1H-chromeno[4,3-b]pyridine-3-carboxylic acid]	12.5 to 150 (≈ 48.6 to 583 µM)	12.5 to 150 (≈ 48.6 to 583 µM)	12.5 to 150 (≈ 48.6 to 583 µM)			
N[C@@H]1[C@H]2CN(c3cc4c(c(F)c3F)-c3[nH]c(=O)c(C(=O)O)c(O)c3CCC4)C[C@@H]12 [Cpd 124, 9-((cis,cis)-6-amino-3-azabicyclo[3.1.0]hexan-3-yl)-10,11-difluoro-4-hydroxy-2-oxo-2,5,6,7-tetrahydro-1H-benzo[6,7]cyclohepta[1,2-b]pyridine-3-carboxylic acid hydrochloride]	< 1	12.5 to 150	3.5 to 12.5			
CCNCc1cc2cc3c(cc2n1C)C=CCc1c-3[nH]c(=O)c(C(=O)O)c1O.Cl [Cpd 69, 10-((ethylamino)methyl)-4-hydroxy-9-methyl-2-oxo-1,2,5,9-tetrahydropyrido[3′,2′:6,7]cyclohepta[1,2-f]indole-3-carboxylic acid hydrochloride]	< 1	12.5 to 150	< 1			
CCNCc1cc2cc3c(cc2n1C)C(C)=CCc1c-3[nH]c(=O)c(C(=O)O)c1O.Cl [Cpd 70, 10-((ethylamino)methyl)-4-hydroxy-7,9-dimethyl-2-oxo-1,2,5,9-tetrahydropyrido[3′,2′:6,7]cyclohepta[1,2-f]indole-3-carboxylic acid hydrochloride]	3.5 to 12.5	3.5 to 12.5	3.5 to 12.5			
NC1C2CN(c3ccc4c(c3)C(O)CCc3c-4[nH]c(=O)c(C(=O)O)c3O)CC12.O=C(O)C(F)(F)F (stereo not drawn) [Cpd 14, 9-((cis,cis)-6-amino-3-azabicyclo[3.1.0]hexan-3-yl)-4,7-dihydroxy-2-oxo-2,5,6,7-tetrahydro-1H-benzo[6,7]cyclohepta[1,2-b]pyridine-3-carboxylic acid trifluoroacetate salt]				* (an MIC value between >12.5 μg/mL and ≦150 μg/mL)	* (an MIC value between >12.5 μg/mL and ≦150 μg/mL)	* (an MIC value between >12.5 μg/mL and ≦150 μg/mL)
CN(C)c1ccc2c(c1)CCCCc1cc(C(=O)O)c(=O)[nH]c1-2 [Cpd 4, 10-(dimethylamino)-2-oxo-1,2,5,6,7,8-hexahydrobenzo[7,8]cycloocta[1,2-b]pyridine-3-carboxylic acid]	< 1	12.5 to 150 (≈ 40 to 480 µM)	12.5 to 150 (≈ 40 to 480 µM)			
CN1CCN(c2ccc3c(c2)NCCc2c-3[nH]c(=O)c(C(=O)O)c2O)CC1.Cl [Cpd 96, 4-hydroxy-9-(4-methylpiperazin-1-yl)-2-oxo-2,5,6,7-tetrahydro-1H-benzo[b]pyrido[2,3-d]azepine-3-carboxylic acid hydrochloride]	3.5 to 12.5	12.5 to 150	12.5 to 150			
Cl.Cl.Cn1c(CNCCN)cc2cc3c(cc21)CCCc1c-3[nH]c(=O)c(C(=O)O)c1O [Cpd 144, 10-(((2-aminoethyl)amino)methyl)-4-hydroxy-9-methyl-2-oxo-1,2,5,6,7,9-hexahydropyrido[3′,2′:6,7]cyclohepta[1,2-f]indole-3-carboxylic acid dihydrochloride]	3.5 to 12.5	12.5 to 150	12.5 to 150			
CCC(C)NCc1cc2cc3c(cc2n1C)OCCc1c-3[nH]c(=O)c(C(=O)O)c1O.Cl (stereo not drawn) [Cpd 168, 10-((sec-butylamino)methyl)-4-hydroxy-9-methyl-2-oxo-2,5,6,9-tetrahydro-1H-pyrido[2′,3′:4,5]oxepino[3,2-f]indole-3-carboxylic acid hydrochloride]	< 1	3.5 to 12.5	< 1			
CN(C)c1ccc2c(c1)CCc1cc(C(=O)O)c(=O)[nH]c1-2 [Cpd 1, 8-(dimethylamino)-2-oxo-1,2,5,6-tetrahydrobenzo[h]quinoline-3-carboxylic acid]	3.5 to 12.5 (≈ 12.3 to 44 µM)	12.5 to 150 (≈ 44 to 528 µM)	12.5 to 150 (≈ 44 to 528 µM)			
CN(C)C1CCN(c2ccc3c(c2)CCCc2c-3[nH]c(=O)c(C(=O)O)c2O)C1.Cl (stereo not drawn) [Cpd 6, 9-(3-(dimethylamino)pyrrolidin-1-yl)-4-hydroxy-2-oxo-2,5,6,7-tetrahydro-1H-benzo[6,7]cyclohepta[1,2-b]pyridine-3-carboxylic acid hydrochloride]	< 1	12.5 to 150	3.5 to 12.5			
CN1CCc2c([nH]c(=O)c(C(=O)O)c2O)-c2ccc(N3CCCC3)cc21 [Cpd 93, 4-hydroxy-7-methyl-2-oxo-9-(pyrrolidin-1-yl)-2,5,6,7-tetrahydro-1H-benzo[b]pyrido[2,3-d]azepine-3-carboxylic acid]	3.5 to 12.5 (≈ 9.85 to 35.2 µM)	12.5 to 150 (≈ 35.2 to 422 µM)	12.5 to 150 (≈ 35.2 to 422 µM)			
Cl.Cn1c(CNC2CC2)cc2cc3c(cc21)OCCc1c-3[nH]c(=O)c(C(=O)O)c1O [Cpd 171, 10-((cyclopropylamino)methyl)-4-hydroxy-9-methyl-2-oxo-2,5,6,9-tetrahydro-1H-pyrido[2′,3′:4,5]oxepino[3,2-f]indole-3-carboxylic acid hydrochloride]	< 1	3.5 to 12.5	< 1			
CN1CCC(NCc2cc3cc4c(cc3n2C)CCCc2c-4[nH]c(=O)c(C(=O)O)c2O)CC1.Cl.Cl [Cpd 157, 4-hydroxy-9-methyl-10-(((1-methylpiperidin-4-yl)amino)methyl)-2-oxo-1,2,5,6,7,9-hexahydropyrido[3′,2′:6,7]cyclohepta[1,2-f]indole-3-carboxylic acid dihydrochloride]	< 1	12.5 to 150	1 to 3.5			
CC(C)CNCc1cc2cc3c(cc2n1C)CCCc1c-3[nH]c(=O)c(C(=O)O)c1O.Cl [Cpd 154, 4-hydroxy-10-((isobutylamino)methyl)-9-methyl-2-oxo-1,2,5,6,7,9-hexahydropyrido[3′,2′:6,7]cyclohepta[1,2-f]indole-3-carboxylic acid hydrochloride]	< 1	3.5 to 12.5	< 1			
Cl.Cl.Cn1c(CN2CCCC(N)C2)cc2cc3c(cc21)CCCc1c-3[nH]c(=O)c(C(=O)O)c1O (stereo not drawn) [Cpd 31, 10-((3-aminopiperidin-1-yl)methyl)-4-hydroxy-9-methyl-2-oxo-1,2,5,6,7,9-hexahydropyrido[3′,2′:6,7]cyclohepta[1,2-f]indole-3-carboxylic acid dihydrochloride]	1 to 3.5	12.5 to 150	3.5 to 12.5			
CN(C)Cc1cc2cc3c(cc2n1C)CCCc1c-3[nH]c(=O)c(C(=O)O)c1O.Cl [Cpd 48, 10-((dimethylamino)methyl)-4-hydroxy-9-methyl-2-oxo-1,2,5,6,7,9-hexahydropyrido[3′,2′:6,7]cyclohepta[1,2-f]indole-3-carboxylic acid hydrochloride]	< 1	3.5 to 12.5	< 1			
Cl.Cn1c(CNC2(C)CC2)cc2cc3c(cc21)CCCc1c-3[nH]c(=O)c(C(=O)O)c1O [Cpd 33, 4-hydroxy-9-methyl-10-(((1-methylcyclopropyl)amino)methyl)-2-oxo-1,2,5,6,7,9-hexahydropyrido[3′,2′:6,7]cyclohepta[1,2-f]indole-3-carboxylic acid hydrochloride]	< 1	3.5 to 12.5	< 1			
CCNCc1cc2cc3c(cc2n1C)Cc1c-3[nH]c(=O)c(C(=O)O)c1O.Cl [Cpd 19, 2-((ethylamino)methyl)-8-hydroxy-1-methyl-6-oxo-1,5,6,9-tetrahydropyrido[3′,2′:4,5]cyclopenta[1,2-f]indole-7-carboxylic acid hydrochloride]	12.5 to 150	12.5 to 150	12.5 to 150			
Cn1ccc2cc3c(c(F)c21)CCCc1c-3[nH]c(=O)c(C(=O)O)c1O [Cpd 18, 8-fluoro-4-hydroxy-9-methyl-2-oxo-1,2,5,6,7,9-hexahydropyrido[3′,2′:6,7]cyclohepta[1,2-f]indole-3-carboxylic acid]	< 1	1 to 3.5 (≈ 2.92 to 10.2 µM)	3.5 to 12.5 (≈ 10.2 to 36.5 µM)			
